Assays:
[1] = system: Methicillin Resistant Staphylococcus aureus strain USA 200; test: Minimum inhibitory concentration (MIC), CLSI broth micro-dilution, S. aureus; format: cell-based; conditions: Staphylococcus aureus, MRSA / USA200, MRSA USA 200, cation adjusted Mueller Hinton Broth + 0.002% Tween-80, 35° C., 22 hours
Summary of the method: (§1)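 Antibacterial potency is measured as MIC by the CLSI broth dilution method. Bacteria at OD600 0.0005 in Tween-80-supplemented cation-adjusted Mueller Hinton broth face ten twofold compound dilutions for 22 h at 35° C.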

[2] = system: Escherichia coli ATCC 25922; test: Minimum inhibitory concentration (MIC), CLSI broth micro-dilution, E. coli; format: cell-based; conditions: Escherichia coli, ATCC25922, 22 h
Summary of the method: as §1

[3] = Table 6, cation adjusted Mueller Hinton Broth + 0.002% Tween-80, 35° C.
[4] = Table 8, cation adjusted Mueller Hinton Broth + 0.002% Tween-80, 35° C.

| Structure (SMILES) | MIC ([1]; Table 6) [µM] | MIC [2, 3] [µM] | MIC ([1]; Table 8) [µM] | MIC [2, 4] [µM] |
| --- | --- | --- | --- | --- |
| Cc1nc(-c2ccc(OC3CCCCC3)cc2)nc(C)c1C(=O)N[C@@H](CCN)C(=O)N(C)[C@@H]1C(=O)N[C@@H](C)C(=O)N[C@H](C(=O)NCC#N)Cc2ccc(OCCN)c(c2)-c2cc1ccc2OCCN (racemic) [Compound 337, rac-(8S,11S,14S)-3,18-bis(2-aminoethoxy)-N-(cyanomethyl)-11-methyl-14-[methyl-[rac-(2S)-4-amino-2-[[2-[4-(cyclohexoxy)phenyl]-4,6-dimethyl-pyrimidine-5-carbonyl]amino]butanoyl]amino]-10,13-dioxo-9,12-diazatricyclo[13.3.1.12,6]icosa-1(18),2(20),3,5,15(19),16-hexaene-8-carboxamide] | 0.012 | 0.11 |  |  |
| CCCCCOc1ccc(-c2nc(C)c(C(=O)N[C@@H](CCN)C(=O)N(C)[C@@H]3C(=O)N[C@@H](C)C(=O)N[C@H](C(=O)O)Cc4ccc(OCCN)c(c4)-c4cc3ccc4OCCN)c(C)n2)cc1 (racemic) [Compound 638, rac-(8S,11S,14S)-3,18-bis(2-aminoethoxy)-11-methyl-14-[methyl-[rac-(2S)-4-amino-2-[[4,6-dimethyl-2-(4-pentoxyphenyl)pyrimidine-5-carbonyl]amino]butanoyl]amino]-10,13-dioxo-9,12-diazatricyclo [13.3.1.12,6]icosa-1(18),2(20),3,5,15(19), 16-hexaene-8-carboxylic acid] |  |  | 0.19 | 0.22 |
| CCCCOc1ccc(-c2ncc(C(=O)N[C@@H](CCN)C(=O)N(C)[C@@H]3C(=O)N[C@@H](C)C(=O)N[C@H](C(=O)NCC#N)Cc4ccc(OCCN)c(c4)-c4cc3ccc4OCCN)c(C)n2)c(C)c1 (racemic) [Compound 242, rac-(8S,11S,14S)-3,18-bis(2-aminoethoxy)-N-(cyanomethyl)-11-methyl-14-[methyl-[rac-(2S)-4-amino-2-[[2-(4-butoxy-2-methyl-phenyl)-4-methyl-pyrimidine-5-carbonyl]amino]butanoyl]amino]-10,13-dioxo-9,12-diazatricyclo[13.3.1.12,6]icosa-1(18),2(20),3,5,15(19),16-hexaene-8-carboxamide] | 0.016 | 0.39 |  |  |
| CCCCCCCc1ccc(C(=O)N[C@@H](CCN)C(=O)N[C@@H]2C(=O)N[C@@H](CC)C(=O)N[C@H](C(=O)NCC#N)Cc3ccc(OCCN)c(c3)-c3cc2ccc3OCCN)c(C)c1 (racemic) [Compound 480, rac-(8S,11S,14S)-3,18-bis(2-aminoethoxy)-N-(cyanomethyl)-11-ethyl-10,13-dioxo-14-[[rac-(2S)-4-amino-2-[(4-heptyl-2-methyl-benzoyl)amino]butanoyl]amino]-9,12-diazatricyclo[13.3.1.12,6]icosa-1(18),2(20),3,5,15(19),16-hexaene-8-carboxamide] | 0.061 | 1.6 |  |  |
| C[C@@H]1NC(=O)[C@@H](N(C)C(=O)[C@H](CCN)NC(=O)c2cnc(-c3ccc(C(C)(C)C)cc3)cc2N)c2ccc(OCCN)c(c2)-c2cc(ccc2OCCN)C[C@@H](C(=O)NCC#N)NC1=O (racemic) [Compound 411, rac-(8S,11S,14S)-3,18-bis(2-aminoethoxy)-N-(cyanomethyl)-11-methyl-14-[methyl-[rac-(2S)-4-amino-2-[[4-amino-6-(4-tert-butylphenyl)pyridine-3-carbonyl]amino]butanoyl]amino]-10,13-dioxo-9,12-diazatricyclo[13.3.1.12,6]icosa-1(18),2(20),3,5,15(19),16-hexaene-8-carboxamide] | 0.016 | 0.25 |  |  |
| Cc1nc(-c2ccc(OCCC(C)(C)C)cc2)nc(C)c1C(=O)N[C@@H](CCN)C(=O)N(C)[C@@H]1C(=O)N[C@@H](C)C(=O)N[C@H](C(=O)NCC#N)Cc2ccc(OCCN)c(c2)-c2cc1ccc2OCCN (racemic) [Compound 338, rac-(8S,11S,14S)-3,18-bis(2-aminoethoxy)-N-(cyanomethyl)-11-methyl-14-[methyl-[rac-(2S)-4-amino-2-[[2-[4-(3,3-dimethylbutoxy)phenyl]-4,6-dimethyl-pyrimidine-5-carbonyl]amino]butanoyl]amino]-10,13-dioxo-9,12-diazatricyclo[13.3.1.12,6]icosa-1(18),2(20),3,5,15(19),16-hexaene-8-carboxamide] | 0.012 | 0.13 |  |  |
| Cc1nc(-c2ccc(OC(C)C)cc2)nc(C)c1C(=O)N[C@@H](CCN)C(=O)N(C)[C@@H]1C(=O)N[C@@H](C)C(=O)N[C@H](C(=O)O)Cc2ccc(O)c(c2)-c2cc1ccc2OCCN (racemic) [Compound 643, rac-(8S,11S,14S)-18-(2-aminoethoxy)-3-hydroxy-11-methyl-14-[methyl-[rac-(2S)-4-amino-2-[[2-(4-isopropoxyphenyl)-4,6-dimethyl-pyrimidine-5-carbonyl]amino]butanoyl]amino]-10,13-dioxo-9,12-diazatricyclo [13.3.1.12,6]icosa-1(18),2(20),3,5,15(19), 16-hexaene-8-carboxylic acid] |  |  | 1.1 | 2.3 |

Further lines, with some results ahead:

| MIC ([1]; Table 6) [µM] | MIC [2, 3] [µM] | Structure (SMILES) | MIC ([1]; Table 8) [µM] | MIC [2, 4] [µM] |
| --- | --- | --- | --- | --- |
| 0.094 | 4 | CCCCc1ccc(Oc2nc(C)c(C(=O)N[C@@H](CCN)C(=O)N(C)[C@@H]3C(=O)N[C@@H](C)C(=O)N[C@H](C(=O)NCC#N)Cc4ccc(OCCN)c(c4)-c4cc3ccc4OCCN)c(C)n2)cc1CCCC (racemic) [Compound 355, rac-(8S,11S,14S)-3,18-bis(2-aminoethoxy)-N-(cyanomethyl)-11-methyl-14-[methyl-[rac-(2S)-4-amino-2-[[2-(3,4-dibutylphenoxy)-4,6-dimethyl-pyrimidine-5-carbonyl]amino]butanoyl]amino]-10,13-dioxo-9,12-diazatricyclo[13.3.1.12,6]icosa-1(18),2(20),3,5,15(19),16-hexaene-8-carboxamide] |  |  |
| 0.031 | 0.19 | CCCC(F)(F)c1ccc(-c2nc(C)c(C(=O)N[C@@H](CCN)C(=O)N(C)[C@@H]3C(=O)N[C@@H](C)C(=O)N[C@H](C(=O)NCC#N)Cc4ccc(OCCN)c(c4)-c4cc3ccc4OCCN)c(C)n2)cc1 (racemic) [Compound 294, rac-(8S,11S,14S)-3,18-bis(2-aminoethoxy)-N-(cyanomethyl)-11-methyl-14-[methyl-[rac-(2S)-4-amino-2-[[2-[4-(1,1-difluorobutyl)phenyl]-4,6-dimethyl-pyrimidine-5-carbonyl]amino]butanoyl]amino]-10,13-dioxo-9,12-diazatricyclo[13.3.1.12,6]icosa-1(18),2(20),3,5,15(19),16-hexaene-8-carboxamide] |  |  |
| 0.023 | 0.38 | CCCc1nc(-c2ccc(C(C)(C)C)cc2)nc(C)c1C(=O)N[C@@H](CCN)C(=O)N(C)[C@@H]1C(=O)N[C@@H](C)C(=O)N[C@H](C(=O)NCC#N)Cc2ccc(OCCN)c(c2)-c2cc1ccc2OCCN [Compound 486] |  |  |
| 0.19 | 0.75 | Cc1nc(-c2ccc3c(c2)CCOC3(C)C)nc(C)c1C(=O)N[C@@H](CCN)C(=O)N(C)[C@@H]1C(=O)N[C@@H](C)C(=O)N[C@H](C(=O)NCC#N)Cc2ccc(OCCN)c(c2)-c2cc1ccc2OCCN (racemic) [Compound 290, rac-(8S,11S,14S)-3,18-bis(2-aminoethoxy)-N-(cyanomethyl)-11-methyl-14-[methyl-[rac-(2S)-4-amino-2-[[2-(1,1-dimethylisochroman-6-yl)-4,6-dimethyl-pyrimidine-5-carbonyl]amino]butanoyl]amino]-10,13-dioxo-9,12-diazatricyclo[13.3.1.12,6]icosa-1(18),2(20),3,5,15(19),16-hexaene-8-carboxamide] |  |  |
| 0.012 | 0.14 | Cc1nc(-c2ccc(C(C)(C)C)cc2)nc(C)c1C(=O)N[C@@H](CCN)C(=O)N(C)[C@@H]1C(=O)N[C@@H](C)C(=O)N[C@H](C(=O)NCC#N)Cc2ccc(OCCN)c(c2)-c2cc1ccc2OCCN (racemic) [Compound 253, rac-(8S,11S,14S)-3,18-bis(2-aminoethoxy)-N-(cyanomethyl)-11-methyl-14-[methyl-[rac-(2S)-4-amino-2-[[2-(4-tert-butylphenyl)-4,6-dimethyl-pyrimidine-5-carbonyl]amino]butanoyl]amino]-10,13-dioxo-9,12-diazatricyclo[13.3.1.12,6]icosa-1(18),2(20),3,5,15(19),16-hexaene-8-carboxamide] |  |  |
| 0.032 | 2.1 | CCCCCCc1ncc(-c2ccc(C(=O)N[C@@H](CCN)C(=O)N(C)[C@@H]3C(=O)N[C@@H](C)C(=O)N[C@H](C(=O)NCC#N)Cc4ccc(OCCN)c(c4)-c4cc3ccc4OCCN)c(C)c2)cn1 (racemic) [Compound 204, rac-(8S,11S,14S)-3,18-bis(2-aminoethoxy)-N-(cyanomethyl)-11-methyl-14-[methyl-[rac-(2S)-4-amino-2-[[4-(2-hexylpyrimidin-5-yl)-2-methyl-benzoyl]amino]butanoyl]amino]-10,13-dioxo-9,12-diazatricyclo[13.3.1.12,6]icosa-1(18),2(20),3,5,15(19),16-hexaene-8-carboxamide] |  |  |
| 0.062 | 0.42 | CCCCc1ccc(-c2ccn(-c3ccc(C(=O)N[C@@H](CCN)C(=O)N(C)[C@@H]4C(=O)N[C@@H](C)C(=O)N[C@H](C(=O)NCC#N)Cc5ccc(OCCN)c(c5)-c5cc4ccc5OCCN)c(C)c3)n2)cc1 (racemic) [Compound 201, rac-(8S,11S,14S)-3,18-bis(2-aminoethoxy)-N-(cyanomethyl)-11-methyl-14-[methyl-[rac-(2S)-4-amino-2-[[4-[3-(4-butylphenyl)pyrazol-1-yl]-2-methyl-benzoyl]amino]butanoyl]amino]-10,13-dioxo-9,12-diazatricyclo[13.3.1.12,6]icosa-1(18),2(20),3,5,15(19),16-hexaene-8-carboxamide] |  |  |
